Data reported in patent publication US9561228B2 (Celgene Avilomics Research, Inc., priority 2013, dated 2017).

What was measured:
Assay type in all cases: cell-based
[1] = system: ERK1/2 phosphorylation of p90RSK in HT29 cells; test: pRSK MSD Assay in HT29 cells; conditions: Homo sapiens, HT-29, read-out: ERK1/ERK2 PRSK MSD HT29 EC50
Outline: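 Phospho-RSK level, read by electrochemiluminescence on RSK-antibody-coated MSD plates with a phospho-RSK/Sulfo-tag detection pair, reports cellular ERK1/2 activity. HT29 cells, kept overnight in 0.1% FBS medium, were exposed to compound for 120 min at 37° C before lysis.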

[2] = system: HCT116 cells (colorectal carcinoma); test: Inhibition of cancer cell proliferation, HCT116 (CellTiterGlo, 72 hours); conditions: Homo sapiens, HCT-116
Outline: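 3000 cells per well exposed to 3-fold serial compound dilutions from 5,000 nM (two-fold solution, stock level) for 72 hours at 37° C. CellTiterGlo luminescence converted to cell number via a standard curve; percent inhibition vs untreated wells, GI50 by curve fit.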

[3] = system: ERK1/2 phosphorylation of p90RSK in HCT116 cells; test: Detection of total and phospho-RSK by MSD ELISA (HCT116); conditions: Homo sapiens, HCT-116, read-out: ERK1/ERK2 PRSK HCT116 EC50
Outline: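 ERK1/2 activity read in cells as p90RSK phosphorylation: lysates from HCT116 cells given compound for 2 h at 37° C were captured on MSD plates. Detection used a pSer380 RSK or a total RSK antibody with SulfoTag secondaries.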

Structure (SMILES) | EC50 [1] | GI50 [2] | EC50 [3]
C=CC(=O)Nc1cc(C)ccc1Nc1nc(Nc2cc(OC)nc(N3CCN(C(C)=O)CC3)c2)ncc1Cl [Compound I-296, N-(2-((2-((2-(4-acetylpiperazin-1-yl)-6-methoxypyridin-4-yl)amino)-5-chloropyrimidin-4-yl)amino)-5-methylphenyl)acrylamide] | < 100 nM | < 100 nM | < 100 nM
C=CC(=O)Nc1ccccc1Nc1nc(Nc2cc(OC)ccc2C)ncc1C(F)(F)F [Compound I-340, N-(2-((2-((5-methoxy-2-methylphenyl)amino)-5-(trifluoromethyl)pyrimidin-4-yl)amino)phenyl)acrylamide] | < 100 nM | 501 to 999 nM | 101 to 500 nM
C=CC(=O)Nc1cc(OC)ccc1Nc1nc(Nc2cc(OC)ncc2C)ncc1Cl [Compound I-242, N-(2-((5-chloro-2-((2-methoxy-5-methylpyridin-4-yl)amino)pyrimidin-4-yl)amino)-5-methoxyphenyl)acrylamide] | < 100 nM | 101 to 500 nM | > 1000 nM
C=CC(=O)Nc1cc(OC)ccc1Nc1nc(Nc2cc(OC)nc(N3CCN(C(C)=O)CC3)c2)ncc1C(F)(F)F [Compound I-91, N-(2-((2-((2-(4-Acetylpiperazin-1-yl)-6-methoxypyridin-4-yl)amino)-5-(trifluoromethyl)pyrimidin-4-yl)amino)-5-methoxyphenyl)acrylamide] | 101 to 500 nM | < 100 nM | < 100 nM
C=CC(=O)Nc1ccccc1Nc1nc(Nc2cc(OC)nc(N3CCCC3)c2)ncc1C(F)(F)F [Compound I-281, N-(2-((2-((2-Methoxy-6-(pyrrolidin-1-yl)pyridin-4-yl)amino)-5-(trifluoromethyl)pyrimidin-4-yl)amino)phenyl)acrylamide] | < 100 nM | < 100 nM | < 100 nM
C=CC(=O)Nc1ccccc1Nc1nc(Nc2cc(OC)nc(N3CCS(=O)(=O)CC3)c2)ncc1C(F)(F)F [Compound I-291, N-(2-((2-((2-(1,1-Dioxidothiomorpholino)-6-methoxypyridin-4-yl)amino)-5-(trifluoromethyl)pyrimidin-4-yl)amino)phenyl)acrylamide] | < 100 nM | < 100 nM | < 100 nM
C=CC(=O)Nc1cc(C)ccc1Nc1nc(Nc2cc(OC)ncc2C)ncc1C(F)(F)F [Compound I-90, N-(2-((2-((2-Methoxy-5-methylpyridin-4-yl)amino)-5-(trifluoromethyl)pyrimidin-4-yl)amino)-5-methylphenyl)acrylamide] | < 100 nM | 501 to 999 nM | 101 to 500 nM
C=CC(=O)Nc1ccccc1Nc1nc(Nc2cc(OC)nc(OCCOC)c2)ncc1C(F)(F)F [Compound I-283, N-(2-((2-((2-Methoxy-6-(2-methoxyethoxyl)pyridin-4-yl)amino)-5-(trifluoromethyl)pyrimidin-4-yl)amino)phenyl)acrylamide] | < 100 nM | < 100 nM | < 100 nM
C=CC(=O)Nc1cc(C)ccc1Nc1nc(Nc2cc(OC)nc(N(C)C3CC3)c2)ncc1C(F)(F)F [Compound I-342, N-(2-((2-((2-(cyclopropyl(methyl)amino)-6-methoxypyridin-4-yl)amino)-5-(trifluoromethyl)pyrimidin-4-yl)amino)-5-methylphenyl)acrylamide] | 101 to 500 nM | 101 to 500 nM | 101 to 500 nM
C=CC(=O)Nc1ccccc1Nc1nc(Nc2cc(NCCOC)nc(OC)c2)ncc1C(F)(F)F [Compound I-286, N-(2-((2-((2-Methoxy-6-((2-methoxyethyl)amino)pyridin-4-yl)amino)-5-(trifluoromethyl)pyrimidin-4-yl)amino)phenyl)acrylamide] | < 100 nM | < 100 nM | < 100 nM
C=CC(=O)Nc1cc(F)ccc1Nc1nc(Nc2cc(OC)ncc2C)ncc1C(F)(F)F [Compound I-322, N-(5-fluoro-2-((2-((2-methoxy-5-methylpyridin-4-yl)amino)-5-(trifluoromethyl)pyrimidin-4-yl)amino)phenyl)acrylamide] | < 100 nM | 101 to 500 nM | 101 to 500 nM
